Results from BindingDB's records for patent US10919852 (Chemocentryx, 2021).

molecular target: Programmed cell death 1 ligand 1 (Homo sapiens, UniProt Q9NZQ7); test: Enzyme-Linked Immunosorbent Assay ELISA
Protocol: 96 Well plates were coated with […] of human PD-L1 (obtained from R&D) in PBS overnight at 4° C. The wells were then blocked with 2% BSA in PBS (W/V) with 0.05% TWEEN-20 for 1 hour at 37° C. The plates were washed 3 times with PBS/0.05% TWEEN-20 and the compounds were serial diluted (1:5) in dilution medium and added to the ELISA plates. Human PD-1 and biotin 0.3 μg/mL (ACRO Biosystems) were added and incubated for 1 hour at 37° C. then washed 3 times with PBS/0.05% TWEEN-20. A second block was performed with 2% BSA in PBS (W/V)/0.05% TWEEN-20 for 10 min at 37° C. and was washed 3 times with PBS/0.05% TWEEN-20. Streptavidin-HRP was added for 1 hour at 37° C. then washed 3 times with PBS/0.05% TWEEN-20. TMB substrate was added and reacted for 20 min at 37° C. A stop solution (2 N aqueous H2SO4) was added. The absorbance was read at 450 nm using a micro-plate spectrophotometer.

Sequence of Programmed cell death 1 ligand 1 (Q9NZQ7 whole entry): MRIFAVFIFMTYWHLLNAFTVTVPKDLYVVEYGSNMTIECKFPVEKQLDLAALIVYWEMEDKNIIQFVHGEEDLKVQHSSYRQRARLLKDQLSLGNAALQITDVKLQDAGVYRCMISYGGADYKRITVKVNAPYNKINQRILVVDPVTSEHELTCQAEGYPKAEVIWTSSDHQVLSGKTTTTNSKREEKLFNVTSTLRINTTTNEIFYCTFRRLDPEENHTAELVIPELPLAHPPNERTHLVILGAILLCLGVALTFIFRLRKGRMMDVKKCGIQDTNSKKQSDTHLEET

| Structure (SMILES) | IC50 |
| --- | --- |
| CC1(F)CCN(CCCOc2cccc(-c3cccc4c3CC[C@@H]4Oc3cc(OCc4cncc(C#N)c4)c(CN[C@H]4CCC(=O)NC4)cc3Cl)c2Cl)CC1 [US10919852, Compound TABLE 1.280] | in the range around 253 nM |
| Cc1c(OCCCN2CCC(C)(F)CC2)cccc1-c1cccc2c1CC[C@@H]2Oc1cc(OCc2cc(C#N)cc(C#N)c2)c(CN[C@@H]2CCC[C@H]2O)cc1Cl [US10919852, Compound TABLE 1.294] | in the range around 253 nM |
| Cc1c(OCCCN2CC[C@H](F)C[C@@H]2C)cccc1-c1cccc2c1CC[C@@H]2Oc1cc(OCc2cc(C#N)cc(C#N)c2)c(CN[C@H]2CCC(=O)NC2)cc1Cl [US10919852, Compound TABLE 1.341] | in the range around 253 nM |
| CCOc1cc(O[C@H]2CCc3c(-c4cccc(OCCCN5[C@H](C)CC[C@H]5C)c4C)cccc32)c(Cl)cc1CN1CCCC[C@H]1C(=O)O [US10919852, Compound TABLE 1.381] | in the range around 253 nM |
| CCOc1cc(O[C@H]2CCc3c(-c4cccc(OCCCN5CCC5(C)C)c4C)cccc32)c(Cl)cc1CN1CC[C@H](C(=O)O)C1 [US10919852, Compound TABLE 1.412] | in the range around 253 nM |
